# Results: patent publication US8968702B2, “Inhibition of HIF-1 activation for anti-tumor and anti-inflammatory responses” (Duke University, priority 2006, dated 2015)
# Like-named read-outs stand apart in the source and are kept apart here. Where a SMILES comes first, the peptide text is derived from it. The star is where a group is joined. Cbz = O=C(OCc1ccccc1)*
# How the values were obtained:
# HIF-1α [1] = format: cell-based, murine
# B16F10 (murine melanoma) = experiment: Tumor growth delay with radiotherapy, B16F10 tumors; format: in vivo; details: syngeneic C57BL/6 mice, 3 fractions of 6 Gy every other day, L-NAME in drinking water
# Excerpt: (§1) Animal experiments. […] Drinking water was renewed daily until animal sacrifice.
# (§2) Statistics. Student's t test, one-way and two-way ANOVA were used where indicated. In growth delay experiments, the numbers of days for tumors to reach 5× their initial volume were used for comparing different treatment groups.
# tumor vasculature = experiment: CD31 vessel staining / vascular density in tumors; format: in vivo, mice; details: 4T1 and B16F10 tumors excised on day 10
# Description: Vessel staining was performed on tumor cryoslices by using the VECTASTAIN® ABC and the NOVARED™ kits from Vector Laboratories (Burlingame, Calif., United States of America), according to the manufacturer's protocol. The primary anti-CD31 antibody (Santa Cruz Biotechnology, Santa Cruz, Calif.) was labeled with a secondary biotinylated anti-rabbit antibody (Jackson ImmunoResearch Labs, Inc.). Slices were counterstained using Harris' hematoxilin. Vascular density was determined by counting CD31-positive structures in 5 random fields per tumor.
# [2] = tested on: 4T1 (murine mammary adenocarcinoma); experiment: Tumor growth delay with radiotherapy, 4T1 tumors; format: in vivo; details: syngeneic mice, 3 fractions of 6 Gy every other day, L-NAME in drinking water
# Excerpt: as §1, §2
# [3] = tested on: constitutively expressed luciferase; experiment: CMV-luc control reporter in irradiated 4T1 tumors in nude mice; format: in vivo; details: 4T1-luc tumors, 6 Gy, with or without L-NAME
# Excerpt: Plasmids and cloning procedures. The HIF-1α bioluminescence reporter (ODD-luc) construct was created by fusing PCR product of ODD domain of HIF-1α (GENBANK® Accession No. U59496) to the 5′ end of firefly luciferase reporter gene. Along with this construct, a luciferase expression vector in which luciferase gene was driven by the CMV promoter was used as a control. […] ODD fragments with or without the mutation were cloned into pCMV-3Tag-4B Epitope Tagging Mammalian Expression vector (Stratagene, La Jolla, Calif., United States of America). The full length mouse VHL gene (GENBANK® Accession No. S76748) was cloned form mouse tissue and tagged with HA tag by PCR. All constructs were sequence-verified.
# Imaging luciferase activity.
# as §1
# HIF-1α [4] = experiment: Radiation-induced ODD-luc in 4T1 tumors in macrophage-depleted nude mice; format: in vivo; details: 4T1-ODD-luc tumors, carrageenan 2 mg i.p. repeated, 6 Gy
# Description: Imaging luciferase activity. Luciferase expression/activity was detected and quantified as relative light units (RLUs) by using the Xenogen IVIS™ imaging system and associated LIVING IMAGE® software (Xenogen, Alameda, Calif., United States of America). […] For in vivo experiments, treated tumor-bearing mice received an i.p. injection of luciferin (150 mg/kg) during isofluorane anesthesia. Repeated images of luciferase expression/activity were acquired following manufacturer's specified procedures.
# Animal experiments. Female NIH Swiss nude mice, C57BL/6 mice were purchased from the National Cancer Institute (NCI; Fredrick, Md., United States of America). Mice with a genetic disruption of the inducible nitric acid synthase gene (C57BL/6 iNOS^−/−) were obtained from the Jackson Laboratory (Bar Harbor, Me., United States of America). Female BALB/c mice were obtained from Charles River Laboratories (Raleigh, N.C., United States of America). Animals were maintained and cared for in accordance with the Duke University Institutional Animal Care and Use Committee guidelines. For tumor implantation, 4T1 tumors were grown in nude mice or in syngeneic BALB/c mice, and B16F10 melanoma in syngeneic C57BL/6 or iNOS^−/− mice. […]
compound,measurement,setting,value
[Cl-].[Cl-].[Co+2] [CoCl2],luminescence from ODD-luc reporter gene expression,HIF-1α [1],rose significantly
"COC(=O)[C@@H](N)CCCNC(=N)N[N+](=O)[O-] [L-NAME, Nω-nitro-L-arginine methyl ester]","tumor growth delay, L-NAME with radiotherapy",B16F10 (murine melanoma),significantly enhanced the therapeutic efficacy of radiotherapy
same,"tumor vasculature (CD31+ vascular density), L-NAME with radiotherapy",tumor vasculature,significantly reduced tumor vasculature
same,"tumor growth delay, L-NAME with radiotherapy",[2],significantly enhanced the therapeutic efficacy of radiotherapy
same,activity of constitutively expressed luciferase (CMV-luc control),[3],did not influence the activity of constitutively expressed luciferase activity
CC(C)C[C@@H](C=O)NC(=O)[C@H](CC(C)C)NC(=O)[C@H](CC(C)C)NC(=O)OCc1ccccc1 [MG132] (Cbz-Leu-Leu-Leu-aldehyde),luminescence from ODD-luc reporter gene expression,"HIF-1α [1]; CoCl2 240 μM for 12 hrs, MG132 10 μM for 12 hrs, versus background",rose significantly
"CC1(C)N([O])C(c2ccc(C(=O)[O-])cc2)=[N+]([O-])C1(C)C.[K+] [carboxy-PTIO, potassium 2-(4-carboxyphenyl)-4,4,5,5-tetramethylimidazoline-1-oxyl-3-oxide]",suppression of GSNO-induced HIF-1α activation (ODD-luc),HIF-1α [1],effectively suppressed HIF-1α activation by GSNO
carrageenan,radiation-induced ODD-luc activation after macrophage depletion,HIF-1α [4],significant reduction in radiation-induced ODD-luc activation
